Legend:
Swiss Albino mice = test: 7 day repeat dose tolerance study in mice; format: in vivo; details: 1000, 500 or 300 mg/kg in PBS, IP, 7 consecutive days; male mice
Procedure: Groups of male Swiss Albino mice (6 mice per dosing group) were dosed with either NMN dissolved in phosphate buffered saline (PBS) at 1000 mg/kg, 500 mg/kg, or 300 mg/kg or vehicle control (PBS) via intraperitoneal injection (IP) for 7 consecutive days. The evaluation criteria used to assess toxicity included daily clinical observations and weight gain.

[1] = Stability in rat plasma / on extraction with organic solvent (LC/MS); format: in vitro ADME
Procedure: Duplicate sets of standard curves of triacetoxy nicotinamide riboside, NMN and nicotinamide riboside in rat plasma were extracted by protein precipitation. Due to sensitivities of compounds to the organic solvent used in extraction, two separate extractions were performed on the standards. The standards were extracted with ACN to obtain triacetoxy nicotinamide riboside and nicotinamide riboside standards, and extracted with MeOH to obtain NMN standards. The standards were analyzed through LC/MS. Due to varying chromatographic properties of the compounds, two separate methods and columns were employed to resolve the compounds. The triacetoxy nicotinamide riboside standards (ACN extraction) were run on an YMC ODS-AQ 2.0×100 mm column, while the NMN standards (MeOH extraction) and nicotinamide riboside standards (ACN extraction) were run on an YMC ODS-AQ 4.5×150 mm column. The resolution procedures were as follows: • 50 uL aliquots of each sample were taken in replicates of four. • Added 200 uL of organic solvent to each sample. • Vortexed samples and centrifuged at 5000 g's for 10 minutes. • Transferred supernatant to new tubes (200 uL), and dried down in Speed-Vac. • Reconstituted samples in 200 uL 95:5 ddH2O:ACN, and vortexed 10 minutes on platform vortexer at setting 10. […] Though the curves may be quantitated separately, they cannot be quantitated together. […]

[2] = system: retinal ganglion cells (RGCs); test: Neuroprotection of retinal ganglion cells in EAE mice with acute optic neuritis (intravitreal treatment); details: for RGC numbers (FG-labeled cells in 12 standardized fields per retina): EAE eyes with optic neuritis; for Neuroprotection for RGCs during acute optic neuritis in EAE: dose-dependent manner
Procedure: Study outline: The neuroprotective effects of nicotinamide riboside were examined in EAE mice with optic neuritis. […] To induce EAE, mice were immunized several days later with 300 μg PLP emulsified in complete Freund's adjuvant (CFA), and control mice (without EAE) were mock-immunized with phosphate buffered saline (PBS) in CFA. All mice received 200 ng intraperitoneal pertussis toxin (PT) on the day of immunization (day 0) and again on day 2.
Eyes were treated with nicotinamide riboside by intravitreal (ivt) injections with a volume of 0.8 μl/injection of a stock solution of either 0.1 M or 0.4 M nicotinamide riboside in PBS (Groups 2, 4 and 5). […] Treament with nicotinamide riboside, as well as PBS control injections, were given ivt on days 0, 4, 7 and 11. Mice were scored daily for clinical EAE, and were sacrificed on day 14 by overdose with ketamine and xylazine.
Retinas were dissected and whole-mounted for fluorescent microscopy. RGC numbers were quantified by counting FG-labeled cells in 12 standardized fields in each retina. Optic nerves were dissected and processed for histology. Cut sections stained by H & E were evaluated for the presence of inflammatory cells to determine acute optic neuritis. RGCs were compared between PBS-treated and nicotinamide riboside-treated eyes with optic neuritis to determine whether nicotinamide riboside prevents loss of neurons.

SMILES: NC(=O)c1ccc[n+]([C@@H]2O[C@H](COP(=O)([O-])O)[C@@H](O)[C@H]2O)c1 [NMN, nicotinamide mononucleotide]
- Clinical signs of toxicity (Swiss Albino mice): None of the animals showed clinical signs of toxicity
- Weight gain by study termination (Swiss Albino mice): All animals in the study gained weight

SMILES: CC(=O)OCC1OC([n+]2cccc(C(N)=O)c2)C(OC(C)=O)C1OC(C)=O (stereo not shown) [Triacetoxy nicotinamide riboside, triacetoxy nicotinamide riboside]
- Hydrolysis on extraction from rat plasma ([1]; extracted with ACN, compared with MeOH): less strongly so
- Hydrolysis on extraction from rat plasma ([1]; extracted with MeOH): hydrolyzes into nicotinamide riboside

SMILES: NC(=O)c1ccc[n+]([C@@H]2O[C@H](CO)[C@@H](O)[C@H]2O)c1 [nicotinamide riboside]
- RGC numbers (FG-labeled cells in 12 standardized fields per retina) ([2]; 100 mM nicotinamide riboside stock, 0.8 μl ivt on days 0, 4, 7, 11 (estimated ocular 19 mM), day 14, Group 4, PBS-treated 268±59, control 691±81): 505±36 RGCs
- RGC numbers (FG-labeled cells in 12 standardized fields per retina) ([2]; 400 mM nicotinamide riboside stock, 0.8 μl ivt on days 0, 4, 7, 11 (estimated ocular 76 mM), day 14, Group 5, p<0.01): 710±67 RGCs
- Incidence of optic neuritis, treated mice vs. controls ([2]; EAE mice, ivt treatment): did not differ
- Inflammatory cell infiltration (optic nerve) ([2]; EAE mice, ivt treatment): does not prevent
- Clinical EAE, treated mice vs. controls ([2]; EAE mice, ivt treatment, scored daily): did not differ
- Neuroprotection for RGCs during acute optic neuritis in EAE [2]: effective
- Neuroprotection for RGCs during acute optic neuritis in EAE ([2]; listed as Nicotinamide riboside): neuroprotective
- Toxicity to RGCs ([2]; mouse, in vivo): not toxic
- Difference in RGC numbers between control eyes and non-EAE eyes treated ([2]; non-EAE eyes, ivt treatment (Group 2) vs. untreated control (Group 1), day 14): no difference
